Test results from patent publication US6469061B1, “Jasmonate pharmaceutical composition for treatment of cancer” (priority 2001, dated 2002).
Values joined by “and” are separate entries in the source; they are usually repeats but may differ in a detail not shown here. Identical values can stand only once.

Experiments:
[1] = tested on: SK-28 human melanoma cells; assay: CellTiter 96 Aqueous Non-Radioactive Cell Proliferation Assay (MTS cytotoxicity), SK-28; type: cell-based; conditions: SK28 cells, 0.5-3 mM tested, 24 hours
Procedure: (§1) All cell lines were purchased from ATCC (Rockville, Md.). […] JA and MJ were dissolved in ethanol.

[2] = tested on: LNCaP androgen-responsive human prostate adenocarcinoma cell line; assay: CellTiter 96 Aqueous Non-Radioactive Cell Proliferation Assay (MTS cytotoxicity), LNCaP; type: cell-based; conditions: LNCaP cells, 0.5-3 mM tested, 24 hours
Procedure: as §1

[3] = tested on: MCF7 human breast carcinoma cell line; assay: CellTiter 96 Aqueous Non-Radioactive Cell Proliferation Assay (MTS cytotoxicity), MCF7; type: cell-based; conditions: MCF7 cells, 0.5-3 mM tested, 24 hours
Procedure: as §1

[4] = tested on: Molt-4, SK-28, LNCaP and MCF7 cells; assay: CellTiter 96 cytotoxicity across the four transformed cell lines; type: cell-based, human; conditions: 0.5-3 mM, 24 hours
Procedure: as §1
Results are presented as means ± standard deviation.

Molt-4 cells [5] = assay: Trypan blue exclusion (cell death versus suppression of proliferation), Molt-4; type: cell-based, human
Source text: (§2) Since the same number of cells was aliquoted into each well initially, decreased optical density as measured in wells containing treated cells (above) reflects cellular death and/or decrease in the rate of proliferation. To distinguish between these two possibilities we employed an additional cytotoxicity assay which detects cell death by lack of trypan blue exclusion.

SK28 cells = assay: Trypan blue exclusion (cell death versus suppression of proliferation), SK28; type: cell-based, human
Source text: as §2

LNCaP cells = assay: Trypan blue exclusion (cell death versus suppression of proliferation), LNCaP; type: cell-based, human
Source text: as §2

MCF7 cells = assay: Trypan blue exclusion (cell death versus suppression of proliferation), MCF7; type: cell-based, human
Source text: as §2

[6] = tested on: Caspase-3 activity in Molt-4 cells; assay: Caspase-3 (CPP32) protease assay in treated Molt-4 cells; type: cell-based, human; conditions: for Caspase-3 activity: all concentrations and times (2, 4, 14 hours), P<0.05
Procedure: Elevated levels of Caspase-3 are a specific marker of the apoptosis process (Porter and Janicke, Cell Death Differ., 6, 99-104, 1999). In order to definitively determine that the cause of cell death was apoptosis, the level of Caspase-3 activity was measured in cells after treatment with JA and MJ. […] Briefly, 2×10^6 cells were lysed and resuspended in 100 μL of reaction buffer containing a fluorogenic Caspase-3 (CPP32) substrate Ac-DEVD-AMC. Reactions were incubated at 37° C. for 2 hours and samples were assayed at excitation wavelength of 360 nm and emission wavelength of 460 nm, in the FL600 Microplate Fluorescence Reader (Bio-Tek Instruments, Winooski, Vt., USA).

Molt-4 cells [7] = assay: Fluorescence microscopy (DAPI) of nuclear morphology in Molt-4 cells; type: cell-based, human
Procedure: To confirm this fact, Molt-4 cells were treated with JA (2 mM) and MJ (0.5 mM) for 14 hours, and analyzed by fluorescence microscopy in order to detect essential morphological characteristics of apoptosis such as condensation and fragmentation of chromatin.
Referring to FIG. 3, fluorescence microscopy pictures are shown depicting changes in cellular morphology within the nuclei of Molt-4 cells, after treatment with plant stress hormones JA or MJ. 5×10^5 cells/sample were harvested, then fixated by addition of a solution of phosphate-buffered saline (PBS) containing [3% paraformaldehyde and 0.1% Triton X-100], for one hour. Cells were stained for 10 minutes with DAPI (1 μg/ml). Nuclei were analyzed by fluorescence microscopy, (using a fluorescence microscope model. A×70 TRF, made by Olympus Optical, Japan) at a magnification of 1:400. Characteristic apoptotic nuclei are marked with arrows.

[8] = tested on: normal lymphocytes from peripheral blood of healthy donors; assay: CellTiter 96 cytotoxicity on normal lymphocytes stimulated by TPA/PHA; type: cell-based, human; conditions: 1 mM or 3 mM, 24 hours
Source text: Normal lymphocytes were separated from peripheral blood, as follows: Mononuclear cells (MNC) from venous blood of healthy donors were collected by Ficoll-Hypaque (Phamacia Fine Chemicals, Uppsala, Sweden) density gradient centrifugation. The resultant mononuclear cell preparation was allowed to adhere to plastic dishes to remove contaminant macrophages. The non-adherent peripheral blood lymphocytes were selected for use.

[9] = tested on: Molt-4 human T lymphoblastic leukemia cell line; assay: CellTiter 96 Aqueous Non-Radioactive Cell Proliferation Assay (MTS cytotoxicity), Molt-4; conditions: Molt-4 cells, 24 hours
Procedure: All cell lines were purchased from ATCC (Rockville, Md.). All reagents were purchased from Sigma Chemicals (St. Louis, Mo.) unless otherwise stated. JA and MJ were dissolved in ethanol.
LNCaP, MCF7 and SK-28 cells (at 4×10^3/well) and Molt-4 cells (at 1.5×10^4/well) were seeded in 96-well plates and allowed to adhere overnight. Plant stress hormone at increasing concentrations was added as indicated below, and toxicity was measured after 24 hours using the CellTiter 96 Aqueous Non-Radioactive Cell Proliferation Assay (Promega, Madison, Wis.); an assay in which viable cells produce a colored product (for details on the protocol of this assay, see below). This assay is quantitative, as the amount of color produced is read using an ELISA reader.
Each cell line was incubated with each of these hormones at a concentration ranging from 0.5-3 mM for 24 hours, after which cytotoxicity was measured. The statistical significance of the results was determined (where appropriate) by two-tailed student's t-test, n=3.
This allowed for development of a color reaction in which dehydrogenases reduce the MTS in metabolically active cells. Since the cells were not washed before the addition of MTS, there were no potentially loosely adherent or non-adherent cells that could have been problematic. Soluble MTS formazan product was measured at a wavelength of 490 nm using a CERES 900 HDI ELISA reader (Bio-Tek Instruments, Inc, Highland Park, Vt.). Optical density is directly proportional to the number of living cells in culture. Cytotoxicity (%) was calculated in the following way: [(OD of control cells−OD of drug-treated cells)/OD of control cells]×100.
Normal lymphocytes and Molt-4 cells were seeded (at 1.5×10^4/well) in 96-well plates.
Jasmonates or salicylic acid were added at a concentration of 1 mM or 3 mM, and cells were incubated for 24 hours. Optical density representing viable cells was determined by the CellTiter 96 Aqueous Non-Radioactive Cell Proliferation Assay.

EL-4 lymphoma cells = assay: EL-4 lymphoma model in mice, survival; type: in vivo, mice (strain C57BL)
Procedure: Syngeneic lymphoma cells were injected into a test group and a control group of mice (strain C57BL). The injections were administered either sub-cutaneously, or intra-peritoneally. Methyl jasmonate was administered orally, by injection directly into the resultant tumor or into the peritoneum, and the effect on tumor progression and on the rate of survival, were analyzed.
400,000 EL-4 lymphoma cells were injected intra-peritoneally into 20 test mice, or 19 control mice, of the C57BL strain.
Preliminary experiments had shown that methyl jasmonate at a dosage of 236-472 mg/kg. body weight was appropriate for prevention of tumoral growth. Therefore, methyl jasmonate was dissolved in a lipid carrier (0.4% Lipofundin, manufactured by B. Brown, Melsunger, Germany) and administered orally at a dosage of 236 mg/kg body weight. Administration was daily, via the drinking water, beginning with the day of injection of the lymphoma cells.
19 control mice received the lipid carrier only (0.4% Lipofundin), with no methyl jasmonate dissolved within.
The survival time of each group of mice was measured (in days), and analyzed.
Each of these tests weighs numerically the importance of a death within one of the two groups of mice, on a given day, compared to the number of surviving mice in the whole.

| SMILES | Concentrations at which cytotoxicity was significant, P<0.05 [1] [µM] | Concentrations at which cytotoxicity was significant, P<0.05 [2] [µM] | Concentrations at which cytotoxicity was significant, P<0.05 [3] [µM] | Order of sensitivity of the cell lines [4] | Kind of damage (cell death or inhibition of cell proliferation) (Molt-4 cells [5]) | Kind of damage (cell death or inhibition of cell proliferation) (SK28 cells) | Kind of damage (cell death or inhibition of cell proliferation) (LNCaP cells) | Kind of damage (cell death or inhibition of cell proliferation) (MCF7 cells) | Caspase-3 activity [6] | Level of Caspase-3 ([6]; incubation for 2 hours) | Nuclear morphology (apoptotic changes) (Molt-4 cells [7]; 2 mM for 14 hours) | Cytotoxicity in normal lymphocytes [8] | Cytotoxicity ([9]; 3 mM) [%] | Concentrations at which cytotoxicity was significant, P<0.05 ([9]; 0.5-3 mM tested) | Concentrations at which cytotoxicity was significant, P<0.01 [3] [µM] | Nuclear morphology (apoptotic changes) (Molt-4 cells [7]; 0.5 mM for 14 hours) | Plateau of survival (cumulative percentage of survival) (EL-4 lymphoma cells; C57BL mice, EL-4 cells i.p., 236 mg/kg orally daily via drinking water, reached on the 33rd day, control 20%, p=0.01492 Log-Rank, p=0.00953 Cox-Mantel) [%] | Dosage appropriate for prevention of tumoral growth (EL-4 lymphoma cells; preliminary experiments in mice) | Cytotoxicity ([9]; 0.5 mM) | Concentrations at which cytotoxicity was significant, P<0.01 ([9]; 0.5-3 mM tested) |
| --- | --- | --- | --- | --- | --- | --- | --- | --- | --- | --- | --- | --- | --- | --- | --- | --- | --- | --- | --- | --- |
| CC/C=C\C[C@H]1C(=O)CC[C@@H]1CC(=O)O [JA, Jasmonic acid] | ≥ 2000 | ≥ 2000 | 3000 | Molt-4>SK-28>LNCaP>MCF7 | cell death | inhibition of cell proliferation | inhibition of cell proliferation | inhibition of cell proliferation | increased Caspase-3 activity significantly | didn't induce an elevation | induced condensation and fragmentation of chromatin | do not harm normal cells | 90 | ≥ 1000 µM | – | – | – | – | – | – |
| O=C([O-])c1ccccc1O.[Na+] [SA, Sodium salicylate, reference compound] | – | – | – | – | inhibition of cell proliferation | inhibition of cell proliferation | inhibition of cell proliferation | inhibition of cell proliferation | – | – | – | – | – | all concentrations | – | – | – | – | – | – |
| CC/C=C\CC1C(=O)CCC1CC(=O)OC (stereo not shown) [MJ, methyl jasmonate] | ≥ 2000 | ≥ 2000 | – | Molt-4>LNCaP>SK28>MCF7 | death | death | death | death | increased Caspase-3 activity significantly | – | – | do not harm normal cells | – | – | 3000 | completely destroyed nuclear morphology in almost all cells | 50 | 236-472 mg/kg. body weight | 87.52% and 90% | all concentrations |
